Test results as given in patent US20040147788A1, “Stilbene derivatives and their use as aryl hydrocarbon receptor antagonistic ligands” (priority 2002, published 2004).
Values joined by “and” are separate entries in the source; they are usually repeats but may differ in a detail not shown here. Equal entries are not always repeated.

What was measured:
ER = target: T1, ER (Homo sapiens, UniProt P03372); assay: ER-mediated transactivation, ERE-driven Luciferase reporter stable cell line (MCF-7-Luc); type: cell-based; settings: for ER T.A. (transcriptional activity): trans-stilbenes; for ER TA (transcriptional activity): cis-stilbenes
T1 construct: stably transfecting MCF-7 cells with the ERE-globin-tk-luc-SV-Neo plasmid; endogenous in cells; host or cells: MCF-7-Luc (MCF-7 stably transfected with ERE-globin-tk-luc-SV-Neo)
T1 sequence (P03372 1-595): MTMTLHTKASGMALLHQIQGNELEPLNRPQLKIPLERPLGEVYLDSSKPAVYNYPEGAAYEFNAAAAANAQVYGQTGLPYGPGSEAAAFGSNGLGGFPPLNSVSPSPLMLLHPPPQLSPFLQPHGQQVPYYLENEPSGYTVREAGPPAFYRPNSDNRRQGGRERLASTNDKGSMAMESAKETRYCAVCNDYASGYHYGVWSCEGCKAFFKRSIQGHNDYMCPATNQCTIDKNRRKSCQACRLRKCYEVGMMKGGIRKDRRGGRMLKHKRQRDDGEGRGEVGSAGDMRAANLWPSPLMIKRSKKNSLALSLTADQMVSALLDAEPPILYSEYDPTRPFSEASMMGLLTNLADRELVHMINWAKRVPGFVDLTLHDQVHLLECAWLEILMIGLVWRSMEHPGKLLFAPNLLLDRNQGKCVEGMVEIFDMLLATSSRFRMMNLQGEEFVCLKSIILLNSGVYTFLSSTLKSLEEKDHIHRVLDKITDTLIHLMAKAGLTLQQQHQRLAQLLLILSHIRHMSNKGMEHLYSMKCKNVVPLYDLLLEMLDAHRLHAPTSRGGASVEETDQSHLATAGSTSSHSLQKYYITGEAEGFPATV
Procedure: The human adenocarcinoma breast cell line MCF-7 was obtained from the American Tissue Culture Collection (Rockville, USA). The cells were established by stably transfecting MCF-7 cells with the ERE-globin-tk-luc-SV-Neo plasmid and thus expressed luciferase in an estrogen dependent manner MCF-7-Luc. […] Cells were incubated at 37° C. in a humidified 5% CO2 incubator. For experiments, cells were grown for 5 days in phenol red-free medium, containing 5% dextran-coated charcoal treated FCS (DCC-FCS). Medium was changed after 2 days. At day 5, cells were treated or not with compounds. Compounds were dissolved in ethanol.
For each condition, 15.103 cells were seeded per well in 12-well plates and treated, as described above, during 16 hours in a final volume of 0.5 mL. At the end of the treatment, cells were washed with PBS and lysed in 150 μl of lysis buffer (Promega, Charbonnieres, France). Luciferase activity was measured using the luciferase assay reagent (Promega), according to the manufacturer's instructions. Protein concentrations were measured using Bradford technique, to normalize the luciferase activity data. For each condition, average luciferase activity was calculated from the data of 3 independent wells.

AhR = target: T2, AhR (Homo sapiens, UniProt P35869); assay: AhR-mediated transactivation, DRE-TK-CAT stable cell line 47DRE treated with TCDD; type: cell-based; parameters: endogenous in cells; key to AhR T.A. (transcriptional activity): Ago: agonist; N.M.: not measurable; settings: DRE-TKCAT reporter; for AhR T.A. (transcriptional activity): trans-stilbenes, 10^−9 M TCDD challenged by 10^−7 M compound; for AhR TA (transcriptional activity): cis-stilbenes, 10^−9 M TCDD challenged by 10−7 M compound
T2 sequence (P35869 11-848): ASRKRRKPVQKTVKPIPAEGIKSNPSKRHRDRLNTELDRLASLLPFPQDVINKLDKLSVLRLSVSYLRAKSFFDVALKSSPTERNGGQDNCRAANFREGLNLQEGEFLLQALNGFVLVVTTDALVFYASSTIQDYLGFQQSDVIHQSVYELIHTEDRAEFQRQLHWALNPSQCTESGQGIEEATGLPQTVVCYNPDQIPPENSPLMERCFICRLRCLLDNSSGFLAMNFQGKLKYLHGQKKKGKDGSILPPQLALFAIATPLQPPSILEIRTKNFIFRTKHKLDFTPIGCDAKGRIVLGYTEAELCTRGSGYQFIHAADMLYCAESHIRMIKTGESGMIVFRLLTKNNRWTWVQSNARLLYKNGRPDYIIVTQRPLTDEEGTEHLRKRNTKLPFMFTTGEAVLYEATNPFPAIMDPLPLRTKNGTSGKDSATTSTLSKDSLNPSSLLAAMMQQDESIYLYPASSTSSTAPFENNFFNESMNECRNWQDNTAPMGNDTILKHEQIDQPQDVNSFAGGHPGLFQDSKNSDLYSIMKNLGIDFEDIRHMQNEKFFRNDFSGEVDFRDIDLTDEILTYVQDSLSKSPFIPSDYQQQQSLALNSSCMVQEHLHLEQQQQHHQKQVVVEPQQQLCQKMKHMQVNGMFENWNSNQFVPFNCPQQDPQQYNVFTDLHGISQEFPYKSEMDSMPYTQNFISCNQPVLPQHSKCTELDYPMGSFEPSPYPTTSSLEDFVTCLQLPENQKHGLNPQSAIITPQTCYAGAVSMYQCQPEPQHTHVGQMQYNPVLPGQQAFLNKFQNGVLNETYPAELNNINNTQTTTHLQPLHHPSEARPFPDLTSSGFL
Procedure: Cis and Trans isomers were then tested for transcriptional modulatory activity in a DRE-TK-CAT containing stable cell line treated with TCDD.
mp° C.: melting point. Ago: agonist. N.M.: not measurable. RBA: relative binding affinity of the compound for the given receptor (AhR or ER).
The stable cell line 47DRE bearing the TCDD-responsive CAT construct was previously described (3). It was routinely grown in DMEM medium supplemented with 10% fetal calf serum (FCS), 4.5 g/L glucose, and 0.6 units/ml (10^−6 M) insulin. Unless stated otherwise, cells were established 24 hours before any experiment in a modified medium (stripped condition) containing 5% Dextran-charcoal-treated newbom calf serum instead of 10% FCS. All other components remained unchanged. […] All chemicals applied to the cells were diluted in ethanol, control cells received ethanol alone. CAT expression was assayed on whole cell extracts (100 μg protein) with a CAT-ELISA assay (Roche, Meylan, France) according to supplier's specifications. Experiments were done in triplicate.

## COc1ccc(/C=C/c2cc(OC)cc(OC)c2)cc1 [Compound 4a, (E)-1-(4-methoxyphenyl)-2-(3,5-dimethoxyphenyl)-ethene]
ER
  ER T.A. (transcriptional activity): Ago
AhR
  AhR T.A. (transcriptional activity): Ant

## COc1ccc(/C=C/c2cc(F)cc(F)c2)cc1 [Compound 4c, (E)-1-(4-methoxyphenyl)-2-(3,5-difluorophenyl)-ethene]
other
  melting point: 108 to 110 °C
ER
  ER T.A. (transcriptional activity): N.M
AhR
  AhR T.A. (transcriptional activity): Ant

## COc1ccc(/C=C\c2cc(F)cc(F)c2)cc1 [Compound 5c, (Z)-1-(4-methoxyphenyl)-2-(3,5-difluorophenyl)-ethene]
ER
  ER TA (transcriptional activity): N.M
AhR
  AhR TA (transcriptional activity): Ant

## Fc1ccc(/C=C/c2cc(F)cc(F)c2)cc1 [Compound 4d, (E)-1-(4-fluorophenyl)-2-(3,5-difluorophenyl)-ethene]
other
  melting point: 47 to 48 °C and 47 °C
ER
  ER T.A. (transcriptional activity): N.M
AhR
  AhR T.A. (transcriptional activity): Ant

## FC(F)(F)c1ccc(/C=C/c2cc(C(F)(F)F)cc(C(F)(F)F)c2)cc1 [Compound 4e, (E)-1-(4-trifluoromethylphenyl)-2-(3,5-ditrifluoromethylphenyl)-ethene]
other
  melting point: 99 to 100 °C
ER
  ER T.A. (transcriptional activity): N.M
AhR
  AhR T.A. (transcriptional activity): Ant

## CCOc1ccc(/C=C\c2cc(OC)cc(OC)c2)cc1 [Compound 5g, (Z)-1-(4-ethoxyphenyl)-2-(3,5-dimethoxyphenyl)-ethene]
ER
  ER TA (transcriptional activity): N.M
AhR
  AhR TA (transcriptional activity): Ant

## COc1cc(/C=C\c2ccc(F)cc2)cc(OC)c1 [Compound 5f, (Z)-1-(4-fluorophenyl)-2-(3,5-dimethoxyphenyl)-ethene]
ER
  ER TA (transcriptional activity): N.M
AhR
  AhR TA (transcriptional activity): Ant

## FC(F)(F)c1ccc(/C=C/c2cc(Cl)cc(Cl)c2)cc1 [Compound 4i, (E)-1-(4-trifluoromethylphenyl)-2-(3,5-dichlorophenyl)-ethene]
other
  melting point: 98 to 100 °C
ER
  ER T.A. (transcriptional activity): N.M.
AhR
  AhR T.A. (transcriptional activity): Ago

## COc1cc(/C=C/c2ccc(F)cc2)cc(OC)c1 [Compound 4f, (E)-1-(4-fluorophenyl)-2-(3,5-dimethoxyphenyl)-ethene]
ER
  ER T.A. (transcriptional activity): N.M
AhR
  AhR T.A. (transcriptional activity): Ant

## FC(F)(F)c1ccc(/C=C\c2cc(Cl)cc(Cl)c2)cc1 [Compound 5i, (Z)-1-(4-trifluoromethylphenyl)-2-(3,5-dichlorophenyl)-ethene]
ER
  ER TA (transcriptional activity): N.M
AhR
  AhR TA (transcriptional activity): Ant

## CCCCOc1ccc(/C=C/c2cc(OC)cc(OC)c2)cc1 [Compound 4h, (E)-1-(4-butoxyphenyl)-2-(3,5-dimethoxyphenyl)-ethene]
other
  melting point: 54 to 56 °C
ER
  ER T.A. (transcriptional activity): N.M.
AhR
  AhR T.A. (transcriptional activity): Ant

## COc1ccc(/C=C\c2cc(Cl)cc(Cl)c2)cc1 [Compound 5j, (Z)-1-(4-methoxyphenyl)-2-(3,5-dichlorophenyl)-ethene]
ER
  ER TA (transcriptional activity): N.M
AhR
  AhR TA (transcriptional activity): Ant

## CCOc1ccc(/C=C/c2cc(OC)cc(OC)c2)cc1 [Compound 4g, (E)-1-(4-ethoxyphenyl)-2-(3,5-dimethoxyphenyl)-ethene]
other
  melting point: 54 to 55 °C
ER
  ER T.A. (transcriptional activity): N.M.
AhR
  AhR T.A. (transcriptional activity): Ant

## COc1ccc(/C=C\c2cc(OC)cc(OC)c2)cc1 [Compound 5a, (Z)-1-(4-methoxyphenyl)-2-(3,5-dimethoxyphenyl)-ethene]
ER
  ER TA (transcriptional activity): Ago
AhR
  AhR TA (transcriptional activity): Ant

## FC(F)(F)c1ccc(/C=C\c2cc(C(F)(F)F)cc(C(F)(F)F)c2)cc1 [Compound 5e, (Z)-1-(4-trifluoromethylphenyl)-2-(3,5-ditrifluoromethylphenyl)-ethene]
ER
  ER TA (transcriptional activity): N.M
AhR
  AhR TA (transcriptional activity): Ant

## Clc1ccc(/C=C\c2cc(Cl)cc(Cl)c2)cc1 [Compound 5b, (Z)-1-(4-chlorophenyl)-2-(3,5-dichlorophenyl)-ethene]
ER
  ER TA (transcriptional activity): N.M
AhR
  AhR TA (transcriptional activity): Ant

## CCCCOc1ccc(/C=C\c2cc(OC)cc(OC)c2)cc1 [Compound 5h, (Z)-1-(4-butoxyphenyl)-2-(3,5-dimethoxyphenyl)-ethene]
ER
  ER TA (transcriptional activity): N.M
AhR
  AhR TA (transcriptional activity): Ant

## COc1ccc(/C=C/c2cc(Cl)cc(Cl)c2)cc1 [Compound 4j, (E)-1-(4-methoxyphenyl)-2-(3,5-dichlorophenyl)-ethene]
other
  melting point: 62 to 64 °C
ER
  ER T.A. (transcriptional activity): N.M.
AhR
  AhR T.A. (transcriptional activity): Ant

## Clc1ccc(/C=C/c2cc(Cl)cc(Cl)c2)cc1 [Compound 4b, (E)-1-(4-chlorophenyl)-2-(3,5-dichlorophenyl)-ethene]
ER
  ER T.A. (transcriptional activity): N.M
AhR
  AhR T.A. (transcriptional activity): Ant

## Fc1ccc(/C=C\c2cc(F)cc(F)c2)cc1 [Compound 5d, (Z)-1-(4-fluorophenyl)-2-(3,5-difluorophenyl)-ethene]
ER
  ER TA (transcriptional activity): N.M
AhR
  AhR TA (transcriptional activity): Ant
